Reference: publication PMC12892976, “Alkylation-based optimization of antifungal FPPS inhibitors yields a potent, broad-spectrum lipophilic zoledronate derivative” (mBio, 2025)
≈ marks a conversion by molar mass, not a printed value. Where two headings read alike, the source gives them in different places.

Key:
Cryptococcus neoformans [1] = assay: checkerboard drug interaction (FICI, MICc);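 on all read-outs here: antifungal plus FPPS inhibitor pairs tested against Cryptococcus neoformans by simplified diagonal checkerboard screening, FICI computed under the Loewe additivity model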; format: cell-based; conditions: C. neoformans; for INH FD (MIC-MICc fold decrease): fold decrease of inhibitor MIC
Experimental: (§1) Drug interactions between antifungals and FPPS inhibitors were investigated using a simplified checkerboard diagonal screening method ([45]). […] FICIs were determined according to the Loewe additivity model ([17]).

eight fungal species [2] = assay: checkerboard interaction with azoles, summary across the eight species; format: cell-based; conditions: geometric mean MIC in combination with azoles
Source text: Synergy between lipophilic FPPS inhibitors and azole antifungals was investigated by determining the fractional inhibitory concentration index (FICI) (Fig. 2; Table S1 Fig. S1) ([17]). […]. Derivatives PLA9 and 11, and PDA9, 11, and 12 antagonized azoles in C. albicans, C. neoformans, and C. deuterogattii, yet were largely synergistic in C. glabrata and S. cerevisiae. […].

[3] = tested on: Cryptococcus deuterogattii; assay: MIC/MFC broth microdilution (CLSI); conditions: Cryptococcus deuterogattii;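 further: broth microdilution per CLSI M27-Ed4. MFC is the lowest concentration yielding no colonies when MIC broths are subcultured onto SDA plates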
Experimental: (§2) Antifungal susceptibility was determined by broth microdilution according to the CLSI guidelines described in M27-Ed4 ([16]). […] MFC was determined by back-plating drug-treated cultures from MIC broths onto SDA plates. The MFC was defined as the lowest concentration from which no colonies could be cultured.

Aspergillus fumigatus [4] = assay: MIC/MFC broth microdilution (CLSI); conditions: ATCC204305
Experimental: as §2

Aspergillus flavus [5] = assay: MIC/MFC broth microdilution (CLSI); conditions: ATCC204304
Experimental: as §2

HEK-293T cells = assay: MTT reduction cytotoxicity assay; format: cell-based; conditions: Homo sapiens, HEK-293T, 72 h, MTT, 72 h
Saccharomyces cerevisiae [6] = assay: checkerboard drug interaction (FICI, MICc); format: cell-based; set-up: INH MICc / INH MICc (ITR:INH) / INH MICc (KET:INH) / INH MICc (FLC:INH): unit not given beside the values;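 further: simplified diagonal checkerboard screen pairing antifungals with FPPS inhibitors, FICI calculated under the Loewe additivity model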
eight fungal species [7] = assay: MIC/MFC summary across the eight fungal species of Table 1; format: cell-based
Experimental: The antifungal activity of these compounds was evaluated according to CLSI guidelines ([16]).

Candida glabrata [8] = assay: checkerboard drug interaction (FICI, MICc);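 on all read-outs here: simplified diagonal checkerboard screen pairing antifungals with FPPS inhibitors, FICI calculated under the Loewe additivity model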; format: cell-based; conditions: C. glabrata; for INH FD (MIC-MICc fold decrease): fold decrease of inhibitor MIC
Experimental: as §1

Trichophyton rubrum [9] = assay: MIC/MFC broth microdilution (CLSI); conditions: Trichophyton rubrum
Experimental: as §2

Aspergillus fumigatus [10] = assay: checkerboard drug interaction (FICI, MICc); format: cell-based;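 further: simplified diagonal checkerboard screen pairing antifungals with FPPS inhibitors against Aspergillus fumigatus, with FICI calculated under the Loewe additivity model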
Experimental: as §1

Trichophyton rubrum [11] = assay: checkerboard drug interaction (FICI, MICc);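 further: simplified diagonal checkerboard screen pairing azole antifungals with FPPS inhibitors, FICI calculated under the Loewe additivity model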; format: cell-based; conditions: T. rubrum
Experimental: as §1

Candida glabrata [12] = assay: MIC/MFC broth microdilution (CLSI); conditions: Nakaseomyces glabratus, CBS138;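 further: broth microdilution following CLSI M27-Ed4, MFC taken as the lowest drug level yielding no growth once MIC wells were subcultured on SDA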
Experimental: as §2

[13] = tested on: Cryptococcus deuterogattii; assay: checkerboard drug interaction (FICI, MICc);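 on all read-outs here: simplified diagonal checkerboard screen pairing antifungal drugs with FPPS inhibitors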; format: cell-based; conditions: C. deuterogattii; for INH FD (MIC-MICc fold decrease): fold decrease of inhibitor MIC
Experimental: as §1

Candida albicans [14] = assay: MIC/MFC broth microdilution (CLSI); format: cell-based; conditions: Candida albicans SC5314
Experimental: as §2

Cryptococcus neoformans [15] = assay: MIC/MFC broth microdilution (CLSI); conditions: Cryptococcus neoformans;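 further: susceptibility testing followed the CLSI M27-Ed4 broth microdilution document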
Experimental: as §2

Saccharomyces cerevisiae [16] = assay: MIC/MFC broth microdilution (CLSI); format: cell-based; conditions: Saccharomyces cerevisiae S288c
Experimental: as §2

Aspergillus flavus [17] = assay: checkerboard drug interaction (FICI, MICc);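 further: simplified diagonal checkerboard screen pairing azole antifungals with FPPS inhibitors, FICI calculated under the Loewe additivity model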; format: cell-based; set-up: INH MICc (KET:INH) / INH MICc (FLC:INH): unit not given beside the values; conditions: A. flavus
Candida albicans [18] = assay: checkerboard drug interaction (FICI, MICc);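 on all read-outs here: antifungal plus FPPS inhibitor combinations on Candida albicans tested by a simplified diagonal checkerboard screen, with FICI calculated under the Loewe additivity model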; format: cell-based; conditions: C. albicans; for INH FD (MIC-MICc fold decrease): fold decrease of inhibitor MIC
Experimental: as §1

[19] = FLC:INH combination, MIC of the inhibitor in combination with FLC
[20] = FLC:INH combination, fold decrease of FLC MIC
[21] = ITR:INH combination, MIC of the inhibitor in combination with ITR
[22] = ITR:INH combination, fold decrease of ITR MIC
[23] = KET:INH combination, MIC of the inhibitor in combination with KET
[24] = KET:INH combination, fold decrease of KET MIC
[25] = Fractional Inhibitory Concentration Index, fluconazole + inhibitor
[26] = Fractional Inhibitory Concentration Index, itraconazole + inhibitor
[27] = Fractional Inhibitory Concentration Index, ketoconazole + inhibitor
[28] = MIC of the inhibitor in combination with fluconazole
[29] = MIC of the inhibitor in combination with itraconazole
[30] = MIC of the inhibitor in combination with ketoconazole
[31] = MIC-MICc fold decrease of fluconazole, negative = increase
[32] = MIC-MICc fold decrease of itraconazole, negative = increase
[33] = MIC-MICc fold decrease of ketoconazole, negative = increase
[34] = MIC-MICc fold decrease of the inhibitor, with fluconazole
[35] = MIC-MICc fold decrease of the inhibitor, with itraconazole
[36] = MIC-MICc fold decrease of the inhibitor, with ketoconazole

## CCCCCCCCCCCCN1CCC[C@H]1C(=O)N[C@H](CC(=O)O)C(=O)O [PDA12]
Cryptococcus neoformans [1]; FLC:INH combination
  FICI: ≥4
  INH FD (MIC-MICc fold decrease): 2
Cryptococcus neoformans [1]; [19]
  INH MICc: 128
Cryptococcus neoformans [1]; [20]
  FLC FD (MIC-MICc fold decrease): -4
Cryptococcus neoformans [1]; ITR:INH combination
  FICI: 2.25
  INH FD (MIC-MICc fold decrease): 4
Cryptococcus neoformans [1]; [21]
  INH MICc: 64
Cryptococcus neoformans [1]; [22]
  ITR FD (MIC-MICc fold decrease): -2
Cryptococcus neoformans [1]; KET:INH combination
  FICI: ≥4
  INH FD (MIC-MICc fold decrease): 2
Cryptococcus neoformans [1]; [23]
  INH MICc: 128
Cryptococcus neoformans [1]; [24]
  KET FD (MIC-MICc fold decrease): -4
Eight fungal species [2]
  GM fungal MICc: 52.3
[3]
  MFC: > 128 µg/mL
  MIC: > 128 µg/mL
Aspergillus fumigatus [4]
  MFC: > 128 µg/mL
  MIC: > 128 µg/mL
Aspergillus flavus [5]
  MFC: > 128 µg/mL
  MIC: > 128 µg/mL
HEK-293T cells; HEK-293T cells, read-out: IC50
  IC50: 168 µg/mL (≈ 421 µM)
HEK-293T cells; read-out: HEK IC50
  IC50: 168 µg/mL (≈ 421 µM)
Saccharomyces cerevisiae [6]; [25]
  FICI (FLC:INH): 0.38
Saccharomyces cerevisiae [6]; [26]
  FICI (ITR:INH): 0.63
Saccharomyces cerevisiae [6]; [27]
  FICI (KET:INH): 0.31
Saccharomyces cerevisiae [6]; [28]
  INH MICc (FLC:INH): 64
Saccharomyces cerevisiae [6]; [29]
  INH MICc (ITR:INH): 32
Saccharomyces cerevisiae [6]; [30]
  INH MICc (KET:INH): 16
Saccharomyces cerevisiae [6]; [31]
  FLC FD (FLC:INH): 8
Saccharomyces cerevisiae [6]; [32]
  ITR FD (ITR:INH): 2
Saccharomyces cerevisiae [6]; [33]
  KET FD (KET:INH): 4
Saccharomyces cerevisiae [6]; [34]
  INH FD (FLC:INH): 4
Saccharomyces cerevisiae [6]; [35]
  INH FD (ITR:INH): 8
Saccharomyces cerevisiae [6]; [36]
  INH FD (KET:INH): 16
Eight fungal species [7]; across eight species, read-out: Geometric mean MFC
  MFC: > 128 µg/mL
Eight fungal species [7]; geometric mean across eight species, read-out: GM fungal MIC
  MIC: 235 µg/mL (≈ 589 µM)
Eight fungal species [7]; read-out: Geometric mean MIC
  MIC: 235 µg/mL (≈ 589 µM)
Candida glabrata [8]; FLC:INH combination
  FICI: 0.75
  INH FD (MIC-MICc fold decrease): 32
Candida glabrata [8]; [19]
  INH MICc: 8
Candida glabrata [8]; [20]
  FLC FD (MIC-MICc fold decrease): 2
Candida glabrata [8]; ITR:INH combination
  FICI: 0.31
  INH FD (MIC-MICc fold decrease): 128
Candida glabrata [8]; [21]
  INH MICc: 2
Candida glabrata [8]; [22]
  ITR FD (MIC-MICc fold decrease): 4
Candida glabrata [8]; KET:INH combination
  FICI: 0.31
  INH FD (MIC-MICc fold decrease): 128
Candida glabrata [8]; [23]
  INH MICc: 2
Candida glabrata [8]; [24]
  KET FD (MIC-MICc fold decrease): 4
Trichophyton rubrum [9]
  MFC: > 128 µg/mL
  MIC: 128 µg/mL (≈ 321 µM)
Aspergillus fumigatus [10]; [25]
  FICI (FLC:INH): 2
Aspergillus fumigatus [10]; [26]
  FICI (ITR:INH): 0.51
Aspergillus fumigatus [10]; [27]
  FICI (KET:INH): 1.5
Aspergillus fumigatus [10]; [28]
  INH MICc (FLC:INH): 256
Aspergillus fumigatus [10]; [29]
  INH MICc (ITR:INH): 2
Aspergillus fumigatus [10]; [30]
  INH MICc (KET:INH): 128
Aspergillus fumigatus [10]; [31]
  FLC FD (FLC:INH): 1
Aspergillus fumigatus [10]; [32]
  ITR FD (ITR:INH): 2
Aspergillus fumigatus [10]; [33]
  KET FD (KET:INH): 1
Aspergillus fumigatus [10]; [34]
  INH FD (FLC:INH): 1
Aspergillus fumigatus [10]; [35]
  INH FD (ITR:INH): 128
Aspergillus fumigatus [10]; [36]
  INH FD (KET:INH): 2
Trichophyton rubrum [11]; [25]
  FICI (FLC:INH): ≥4
Trichophyton rubrum [11]; [26]
  FICI (ITR:INH): 3
Trichophyton rubrum [11]; [27]
  FICI (KET:INH): ≥4
Trichophyton rubrum [11]; [28]
  INH MICc (FLC:INH): 256
Trichophyton rubrum [11]; [29]
  INH MICc (ITR:INH): 256
Trichophyton rubrum [11]; [30]
  INH MICc (KET:INH): 256
Trichophyton rubrum [11]; [31]
  FLC FD (FLC:INH): -2
Trichophyton rubrum [11]; [32]
  ITR FD (ITR:INH): 1
Trichophyton rubrum [11]; [33]
  KET FD (KET:INH): -2
Trichophyton rubrum [11]; [34]
  INH FD (FLC:INH): -2
Trichophyton rubrum [11]; [35]
  INH FD (ITR:INH): -2
Trichophyton rubrum [11]; [36]
  INH FD (KET:INH): -2
Candida glabrata [12]
  MFC: > 128 µg/mL
  MIC: > 128 µg/mL
[13]; FLC:INH combination
  FICI: 2.5
  INH FD (MIC-MICc fold decrease): 2
[13]; [19]
  INH MICc: 128
[13]; [20]
  FLC FD (MIC-MICc fold decrease): -2
[13]; ITR:INH combination
  FICI: ≥4
  INH FD (MIC-MICc fold decrease): 2
[13]; [21]
  INH MICc: 128
[13]; [22]
  ITR FD (MIC-MICc fold decrease): -4
[13]; KET:INH combination
  FICI: 0.5
  INH FD (MIC-MICc fold decrease): 4
[13]; [23]
  INH MICc: 64
[13]; [24]
  KET FD (MIC-MICc fold decrease): 4
Candida albicans [14]
  MFC: > 128 µg/mL
  MIC: > 128 µg/mL
Cryptococcus neoformans [15]
  MFC: > 128 µg/mL
  MIC: > 128 µg/mL
Saccharomyces cerevisiae [16]
  MFC: > 128 µg/mL
  MIC: > 128 µg/mL
Aspergillus flavus [17]; [25]
  FICI (FLC:INH): 2
Aspergillus flavus [17]; [26]
  FICI (ITR:INH): 1
Aspergillus flavus [17]; [27]
  FICI (KET:INH): 1
Aspergillus flavus [17]; [28]
  INH MICc (FLC:INH): 256
Aspergillus flavus [17]; [29]
  INH MICc (ITR:INH): 128
Aspergillus flavus [17]; [30]
  INH MICc (KET:INH): 128
Aspergillus flavus [17]; [31]
  FLC FD (FLC:INH): 1
Aspergillus flavus [17]; [32]
  ITR FD (ITR:INH): 2
Aspergillus flavus [17]; [33]
  KET FD (KET:INH): 2
Aspergillus flavus [17]; [34]
  INH FD (FLC:INH): 1
Aspergillus flavus [17]; [35]
  INH FD (ITR:INH): 2
Aspergillus flavus [17]; [36]
  INH FD (KET:INH): 2
Candida albicans [18]; FLC:INH combination
  FICI: 2.06
  INH FD (MIC-MICc fold decrease): 16
Candida albicans [18]; [19]
  INH MICc: 16
Candida albicans [18]; [20]
  FLC FD (MIC-MICc fold decrease): -2
Candida albicans [18]; ITR:INH combination
  FICI: ≥4
  INH FD (MIC-MICc fold decrease): 4
Candida albicans [18]; [21]
  INH MICc: 64
Candida albicans [18]; [22]
  ITR FD (MIC-MICc fold decrease): < -4
Candida albicans [18]; KET:INH combination
  FICI: ≥4
  INH FD (MIC-MICc fold decrease): 8
Candida albicans [18]; [23]
  INH MICc: 32
Candida albicans [18]; [24]
  KET FD (MIC-MICc fold decrease): -4
